Test results taken from the NIST ThermoML archive (doi:10.1021/je049622g).

Experiment: xn = mol fraction of the nth substance listed
Details: 311 K, Fluid (supercritical or subcritical phases), Pulse-echo method

CCCC [butane] + C
Details | speed of sound [m/s]
2068 kPa, x2 = 0.894 | 381.6
2758 kPa, x2 = 0.894 | 378.5
3447 kPa, x2 = 0.894 | 375.5
3930 kPa, x2 = 0.158 | 760.1
3999 kPa, x2 = 0.158 | 760.7
4137 kPa, x2 = 0.158 | 762.3
4137 kPa, x2 = 0.894 | 372.7
4826 kPa, x2 = 0.158 | 778.7
4826 kPa, x2 = 0.894 | 370.1
5516 kPa, x2 = 0.158 | 793.5
5516 kPa, x2 = 0.894 | 368
6205 kPa, x2 = 0.158 | 805.6
6205 kPa, x2 = 0.894 | 366.4
6895 kPa, x2 = 0.158 | 817.6
6895 kPa, x2 = 0.894 | 365.2
7584 kPa, x2 = 0.894 | 364.8
8274 kPa, x2 = 0.894 | 365.1
8963 kPa, x2 = 0.894 | 366
9653 kPa, x2 = 0.894 | 367.8
10342 kPa, x2 = 0.158 | 866
10342 kPa, x2 = 0.894 | 370.3
11032 kPa, x2 = 0.894 | 373.7
11721 kPa, x2 = 0.894 | 378
12411 kPa, x2 = 0.894 | 383.1
13100 kPa, x2 = 0.894 | 388.9
13128 kPa, x2 = 0.724 | 314.6
13148 kPa, x2 = 0.724 | 316.5
13231 kPa, x2 = 0.724 | 323.7
13307 kPa, x2 = 0.724 | 329.7
13472 kPa, x2 = 0.724 | 344
13790 kPa, x2 = 0.158 | 906.3
13790 kPa, x2 = 0.894 | 395.6
13845 kPa, x2 = 0.724 | 366.1
14479 kPa, x2 = 0.724 | 395.6
14479 kPa, x2 = 0.894 | 402.9
15168 kPa, x2 = 0.724 | 420.7
15168 kPa, x2 = 0.894 | 410.8
15858 kPa, x2 = 0.724 | 443.6
15858 kPa, x2 = 0.894 | 419.4
16547 kPa, x2 = 0.724 | 464.8
16547 kPa, x2 = 0.894 | 428.4
17237 kPa, x2 = 0.724 | 484.4
17237 kPa, x2 = 0.894 | 438
